# Measurements published in patent publication US20170246176A1, “PHACOSCLEROSIS INHIBITOR” (KEIO UNIVERSITY, priority 2014, published 2017).
# What was measured:
# [1] = test system: cornea state of the rat exposed to mainstream smoke; test: Fluorescent staining of cornea after smoking treatment by exposure to mainstream smoke; assay type: in vivo, Sprague-Dawley (SD) rats; details: male SD rats, smoking treatment 12 days, instillation 5 μL per eye, once before and 3 times after smoking treatment, 0.1% tiopronin or 0.005% pirenoxine (Catalin)
# Description: (§1) Male 6-8-week-old Sprague-Dawley (SD) rats were divided into 4 groups, each group with 4 rats, and they were used as a nonsmoking treatment group (NT), a smoking treatment group (Smoking), a smoking treatment+0.1% tiopronin instillation group (S+0.1% Tiopronin), and a smoking treatment +0.005% pirenoxine instillation group (S+Catalin).
# (§2) Tiopronin (Thiola Tab. 100, manufactured by Mylan EPD) was prepared to provide an active ingredient amount of 0.1 w/v %, whereby an ophthalmic solution was produced. Catalin For Ophthalmic 0.005% (manufactured by Senju Pharmaceutical Co., Ltd.) was used for the 0.005% pirenoxine instillation group. Each eye was instilled with 5 μL per instillation. Instillation was performed for 12 days, once before the following smoking treatment and 3 times after the treatment.
# The smoking treatment was performed as follows by reference to the method of Higuchi et al. (Free Radic. Biol. Med., 2011, Vol. 51, pages 2210-2216). Rats were placed in a smoking chamber and 300 mL of mainstream smoke was added into the chamber with a syringe. Male 6-8-week-old SD rats (maximum 12 rats) were placed in a smoking chamber (60 cm×40 cm×35 cm) produced for the experiment, and fresh air was supplied into the chamber with an air pump. Tobacco (Seven Star. (registered trade mark)) was set on a 50 mL syringe, and the mainstream smoke was sucked and blown into the chamber. This suction operation was repeated 6 times, a total 300 mL of the mainstream smoke was added into the chamber, and the rats were left standing for 30 min while delivering fresh air by the pump. A similar operation was repeated 5 times more (total 6 times), thereby exposing the rats to the mainstream smoke for 3 hr in total per day. […] The body weight of the rats that underwent the smoking treatment for 12 days and the nonsmoking group was measured, and cornea, lacrimal gland, crystalline lens were harvested. […] Of the rats that underwent the smoking treatment, the instillation group (S+Tiopronin, S+Catalin) and the noninstillation group (Smoking) were compared for the fluorescence score.
# [2] = test system: hardening of crystalline lens due to exposure to mainstream smoke in rat; test: Measurement of crystalline lens hardness after smoking treatment; assay type: in vivo, Sprague-Dawley (SD) rats; details: male SD rats, smoking treatment 12 days; instillation 5 μL per eye, once before and 3 times after smoking treatment; 0.1% tiopronin or 0.005% pirenoxine (Catalin); Dunnett method, p<0.01
# Description: as §1
# as §2, with “Instillation was performed for 12 days, once before the following smoking treatment and 3 times after the treatment.” left out
# The smoking treatment was performed as follows by reference to the method of Higuchi et al. (Free Radic. Biol. Med., 2011, Vol. 51, pages 2210-2216). […] The body weight of the rats that underwent the smoking treatment for 12 days and the nonsmoking group was measured, and cornea, lacrimal gland, crystalline lens were harvested. […] Of the rats that underwent the smoking treatment, the instillation group (S+Tiopronin, S+Catalin) and the noninstillation group (Smoking) were compared for the fluorescence score.
# The crystalline lens isolated from the eyeball in Example 1 was measured for the crystalline lens hardness by the following method. […]
SMILES,"fluorescent staining score of cornea (corneal state), instillation group vs noninstillation smoking group [1]","hardness of the crystalline lens (weight divided by distance), vs smoking treatment group [2]","fluorescent staining score of cornea (corneal state), instillation group vs noninstillation smoking group ([1]; listed as Catalin)"
"CC(S)C(=O)NCC(=O)O (centres unmarked) [tiopronin, N-(2-mercaptopropionyl)glycine]",exacerbation of the corneal state due to instillation was not found,an increase in the hardness was significantly suppressed,–
"O=C(O)c1cc(O)c2c3nc4ccccc4oc-3cc(=O)c2n1 [pirenoxine, 1-hydroxy-5-oxo-5H-pyrido[3,2-α]phenoxazine-3-carboxylic acid]",showed a tendency toward improvement,an increase in the hardness was significantly suppressed,exacerbation of the corneal state due to instillation was not found
